# Assay results taken from ChEMBL document CHEMBL3507680, “University of Dundee, Gates Library screen for HepG2 cell viability”.
# Assay: Human HepG2 cell viability assay in 384 well format
# Type: toxicity, cell-based
# Parameters: dose 125 nL, time 70.5 hour; concentration not given beside the values
# Conditions: HepG2 cells, read-out: Inhibition
row,SMILES,cytotoxicity at 70.5 h [%]
1,CC/C=C(\C)CN1CCC(CNC(=O)c2ccc(=O)[nH]c2)CC1,-6.38
2,Cc1ccc2nc(CN3CCC(O)(CN4CCCC4)CC3)cc(O)c2c1,-7.1
3,CN(CC1Cc2ccccc2CN1C)C(=O)Cc1cccs1 (centres undefined),-6.46
4,CCn1c(Cn2ccnc2)nnc1C1CCN(Cc2ccc(C)o2)CC1,5.39
5,c1cncc(NCCNC2CCSC2)c1 (centres undefined),14.7
6,Cc1nonc1C1CCCN1C(=O)c1cc2n(n1)CCCN(C(C)C)C2 (centres undefined),-6.2
7,O=C(NCCN1CCOC1=O)c1cc(-c2ccccc2)on1,33.3
8,CN1CC2(CCCN(Cc3nnc(-c4ccco4)o3)CC2)OC1=O (centres undefined),-0.887
9,CSCc1nc(CCNC(=O)c2cnn(C(C)C)c2)cs1,-1.66
10,O=S1(=O)C[C@@H]2[C@H](C1)N(Cc1cccc(O)c1)CCN2CC1CC1,-5.99
11,CCCc1cc(C(=O)NC2CCCCNC2=O)[nH]n1 (centres undefined),-5.95
12,CC(=O)Nc1ccc2nc(-c3nccn3CC(C)(C)CO)ccc2c1,-11
13,C1CCC(CNC2CCSCC2)(N2CCOCC2)CC1,3.74
14,COc1ccc(Oc2ccc(C(F)(F)F)cn2)cc1CN1CCCC1,-11.6
15,Oc1cc(CN2CCC(O)(Cn3ccnc3)CC2)nc2ccc(F)cc12,-7.61
16,Cc1ccc2nc(C)c(C)c(C(=O)NCCCn3cnnc3)c2c1,-2.61
17,Cc1nc2c(c(N3CCN(c4ncccc4C(N)=O)CC3)n1)CCNC2,-3.51
18,COCCN1C[C@H]2CC[C@@H]1CN(CC(=O)Nc1ccn(C)n1)C2,-9.39
19,COc1cccc(N2CCN(C(C(=O)O)c3ccc(OC)nc3)CC2)c1 (centres undefined),-9.28
20,CCN(CC)Cc1cc(C(=O)N2CC[C@@]3(O)CCCC[C@H]3C2)c(C)o1,-9.79
21,CC(C)CN1CC2(CCN(C(=O)C(O)c3cccc(Cl)c3)CC2)CC1=O (centres undefined),1.55
22,CCN1CCC2(CCC1=O)CN(c1nccc(N)n1)CCN2C (centres undefined),-4.72

row,SMILES,cytotoxicity at 70.5 h [%]
1,NCc1cn(CC2CCCN(C(=O)NCCc3ccc(F)cc3)C2)nn1 (centres undefined),22.7
2,Cn1cnc(S(=O)(=O)N2C[C@@H]3CC[C@H](C2)N(Cc2cscn2)C3=O)c1,-6.52
3,CC(C)c1noc(CC[C@@H]2CCCN3CCCC[C@H]23)n1,-0.439
4,O=C(Cn1nnc(-c2ccc(F)cc2)n1)N1CCOCC(O)C1 (centres undefined),-1.8
5,CCN(Cc1ccc(C(C)C)cc1)C(=O)c1csc(CN(C)C)n1,7.36
6,CC(C)=CCN1CCc2onc(-c3ccc(F)c(F)c3)c2C1,-11.7
7,O=C(O)c1cccnc1CN1CCCCC1CCc1ccccn1 (centres undefined),-14.4
8,CCc1ccc2nc(C)cc(C(=O)N[C@@H]3C[C@@H](CO)N(C)C3)c2c1,-3.88
9,CCN(CC)Cc1cc(C(=O)N2CCC3(CC2)NCCNC3=O)c(C)o1,1.97
10,Cn1ccnc1-c1ccc(NCc2cn3c(n2)SCC3)nn1,-1.93
11,CN(C)S(=O)(=O)N1CCCCC1CCc1ccc(O)cc1 (centres undefined),-6.59
12,O=C(CN1CCCCC1=O)N1CCC2(CC1)[C@H](O)C[C@@H]2O,-3.31
13,O=C(CSc1ccncc1)NC1CC(=O)N(CCc2ccccc2)C1 (centres undefined),-8.43
14,CN(C)CC1(O)CCN(C(=O)c2cnc(CN3CCCC3)s2)C1 (centres undefined),0.326
15,CN(C)c1nc2c(c(N3CCc4c(c(CO)nn4C)C3)n1)CCNC2,46.5
16,Cc1ccc2c(c1)c(CNC(C)Cn1nc(C)cc1C)nn2C (centres undefined),2.8
17,Cc1ccc(CN2C[C@@H](C(=O)O)[C@H](c3ccccn3)C2)o1,17.9
18,Cc1cn2cc(-c3nc4c([nH]3)CCCNC4=O)nc2s1,-10.3
19,Cn1cnnc1CN1CCC2(CCC(=O)N(Cc3ccccn3)C2)CC1,-6.09
20,CC(C)CN1CCN(S(=O)(=O)c2cn(C)cn2)[C@H]2CS(=O)(=O)C[C@H]21,-9.12
21,CCOCCOc1ccccc1C(=O)N1C[C@H](C2CC2)[C@@H](N)C1,27.2
22,CC(C)Cc1cc(C(=O)NCCc2nnc(N)s2)n(C)n1,-23.5

row,SMILES,cytotoxicity at 70.5 h [%]
1,CCc1c(C)nn(CCNC(=O)Cc2csc(C)n2)c1C,-6.58
2,Cc1cc(-c2cc(-c3cc(CC(=O)O)cs3)nc(N)c2C#N)oc1C,-12.1
3,CCn1nc(NC(=O)Cn2ccc(C(C)=O)n2)c2ccccc21,26.9
4,CNC1CCN(C2CCN(c3ccc(-c4ccco4)cc3)CC2)CC1,8.23
5,CC(C)=CCN1CCN(C(=O)c2cc(C(C)C)no2)[C@H]2CS(=O)(=O)C[C@H]21,-8.12
6,CCn1cc(-c2cc(-c3ccn(C)c3)nc(N)c2C#N)cc1C#N,5.48
7,CN1CCN(C(=O)c2cccc(S(=O)(=O)NCC3(C)COC3)c2)CC1,-9.16
8,COC(=O)c1ccc2ccn(CC3CCCCO3)c(=O)c2c1 (centres undefined),-4.76
9,CC(=O)N1C[C@@H]2CC[C@H](C1)N(C(=O)CCc1n[nH]c3c1CCCC3)C2,1.78
10,Cc1ccc(CN2CCC(n3cc(CN4CCC(O)CC4)nn3)CC2)s1,-6.27
11,CCc1ncc2c(n1)CN(C(=O)CCCc1ccc(OC)cc1)C2,-6.31
12,Cc1ncc(C(=O)N2CCCC(C(=O)CCc3ccccc3)C2)s1 (centres undefined),-13.8
13,CN1CCN2C[C@@H](NC(=O)c3nc4ccccc4[nH]3)C[C@H]2C1,-4.68
14,CCNc1ccnc(-c2ccnc3c2ccn3C)n1,-2.33
15,CCN(CCc1nc2cc(C)ccc2[nH]1)C(=O)[C@@H](N)CCSC,-4.38
16,COC1CCN(C(=O)Cn2cccc(C(F)(F)F)c2=O)C1 (centres undefined),-8.78
17,C[C@@H]1CN(Cc2nc(C(N)=O)no2)CC[C@@]1(O)C1CCOCC1,-8.91
18,Cc1cc2c(N3CCC(N(C)Cc4nccs4)CC3)ncnc2s1,9.35
19,Cc1csc2c(N3CCC(Cn4cc(C(C)(C)O)nn4)CC3)ncnc12,-9.53
20,CC(C)N1CCCn2nc(C(=O)NCc3ccccc3F)cc2C1,-5.27
21,Cn1cc(CN2CCCC23CCN(c2nc4ccccc4s2)CC3)cn1,-4.41
22,CNS(=O)(=O)CCNC(=O)c1coc(COc2ccc(F)cc2)n1,-4.33

row,SMILES,cytotoxicity at 70.5 h [%]
1,Cc1nc(CN(C)C(=O)c2ccc(Cn3cnnn3)cc2)cs1,21.4
2,COc1cccc(C2CCN(c3ccc4cc[nH]c4n3)C2)c1OC (centres undefined),1.26
3,Cc1nccc(N[C@H]2CN(C(=O)CCN3CCCC3=O)C[C@@H]2C(C)C)n1,-19.6
4,O=C1CCCCCN1Cc1cccc(OC(F)F)c1,-5.05
5,O=C(O)c1cnc(N2CC[C@H](N3CCOCC3)[C@H](CCCO)C2)c(Cl)c1,-7.02
6,O=C(NCCc1cnccn1)C1(N2CCCCC2)Cc2ccccc2C1,-8.18
7,Cc1cc(C)c2c(N3CCN(C(=O)N(C)C)CC3)ncnc2n1,-3.44
8,CN(Cc1n[nH]c2c1CCC2)C(=O)c1cccc(CCC(C)(C)O)c1,1.92
9,Cc1cccc2[nH]c(C3CCCN3Cc3ccc(CO)o3)nc12 (centres undefined),-9.7
10,CCc1[nH]c2c(CNC(=O)C3CNC(=O)C3)cc(C)cc2c1C (centres undefined),-11.3
11,Cc1nc2c(c(NCC(c3cccnc3)N3CCOCC3)n1)CCNC2 (centres undefined),-15.5
12,OCC1(O)CCCN(Cc2noc(-c3ccccc3)n2)CC1 (centres undefined),26.3
13,Cc1nonc1CN(C)Cc1nc(-c2ccccc2Cl)oc1C,-7.91
14,CCN1CCC(Cn2ccc3ccc(C(=O)OC)cc3c2=O)C1 (centres undefined),-6.6
15,COCCCN1C(=O)CC[C@H]2CN(c3cnc4ccccc4n3)CC[C@H]21,25
16,N#Cc1ccccc1C(=O)NCCC1CN(Cc2ccco2)CCO1 (centres undefined),2.72
17,NC(=O)c1cc2c(nc1-c1ccoc1)CCC2,-6.2
18,CC1(C)CN(CCC(=O)NCc2cccc(Cl)c2)CC[C@]1(C)O,-9.57
19,Cc1cc(C(=O)N2CCCC(c3nccn3Cc3ccncc3)C2)no1 (centres undefined),-12.9
20,CCC(O)CNc1nccc(-c2ccc(C)nc2C)n1 (centres undefined),-14.6
21,CC(C(=O)O)N1CC2(CCC1=O)CCN(CCc1ccccc1)CC2 (centres undefined),-11
22,Clc1ccc(CN2CCC(C3CCN(Cc4cccnc4)CC3)C2)cc1 (centres undefined),-2.87

row,SMILES,cytotoxicity at 70.5 h [%]
1,CCCSCC(=O)N1C[C@H]2CC[C@@H]1CN(c1ncccn1)C2,-14.1
2,Cc1nnsc1CN1C[C@@H]2CC[C@H](C1)N(Cc1ccccc1)C2,8.69
3,O=C(CSCC1CC1)N1CCc2[nH]nc(COc3ccccc3)c2C1,-6.96
4,Cc1nc2sccn2c1C(=O)N1CCn2nc(C(=O)NC3CC3)cc2C1,-11.6
5,Cc1cc(C(=O)N2CCc3[nH]nc(-c4ccc5c(c4)OCO5)c3C2)no1,1.25
6,CCc1cccc(OCCN(C)C(=O)c2ccccc2NCC(=O)O)c1,-13.6
7,CSCCCN1CCN(c2ccc(Cl)cn2)CC1,-5.7
8,CC(C)=CCC1(C(=O)O)CCCN(c2ccnc(C)n2)C1 (centres undefined),-3.8
9,COCC1(C(=O)N[C@H]2CN(c3nnc(C)s3)C[C@@H]2C2CC2)CCC1,7.64
10,CCN(Cc1nc(COC)no1)C[C@]1(O)CCCN2CCCC[C@@H]21,-10.1
11,Cc1nc(NCCSc2nnc(C)s2)c2cccnc2n1,-14.5
12,CN(C)CCn1ccnc1C1CCN(C(=O)CCc2ccncc2)CC1,-5.61
13,CN1CCCN(C[C@@H]2CN(C(=O)CC3CCC3)C[C@@H]2CO)CC1,-2.25
14,CNC(=O)c1noc(Cn2ncc3ccccc3c2=O)n1,0.589
15,CCCc1nc(C(=O)N2CCN(C(=O)OC)CC2)cs1,-4.71
16,COc1cc(C)ccc1C(=O)N1CCC2(CCC(=O)N(C(C)C)C2)CC1,-4.16
17,COc1ccc(C2(C(=O)N3CC(c4cccnc4)C3)CC2(C)C)cc1 (centres undefined),-0.294
18,CCN1CC2(CCN(C(=O)C3CSC(C)(C)C(=O)N3)CC2)CC1=O (centres undefined),-6.11
19,Cc1ccc2nc(C3CCCN3Cc3nnc(C)s3)[nH]c2c1 (centres undefined),26.6
20,CCc1nnc(CN(C)C(=O)C2CC(=O)N(C3CC3)C2)o1 (centres undefined),-6.39
21,CCCn1cc(-c2ccnc(NC3CCCc4ccccc43)n2)c(C)n1 (centres undefined),18.9
